Structures are written as SMILES.

Consider 24 compounds from US8426345B2, “Method of drug design” (Alchemia Limited, priority 2005, dated 2013).

In the experiment the target is T1, Human SST5 somatostatin receptor (Homo sapiens, UniProt P35346).
T1 construct: expressed in transfected cells; host or cells: HEK-293 EBNA cells (membranes)
The experiment in a line: Filter plate radio-ligand binding assay for SST5 receptor ([125I]SST-14 displacement). To be noted: 3P library; for % SST5 radio-ligand binding displaced at conc 0.001: conc 0.001 μM; for % SST5 radio-ligand binding displaced at conc 0.10: conc 0.10 μM; for % SST5 radio-ligand binding displaced at conc 0.5: conc 0.5 μM; for % SST5 radio-ligand binding displaced at conc 1.0: conc 1.0 μM; for % SST5 radio-ligand binding displaced at conc 10: conc 10 μM; for % SST5 radio-ligand binding displaced at conc 0.25: conc 0.25 μM.

T1 sequence (P35346 whole entry): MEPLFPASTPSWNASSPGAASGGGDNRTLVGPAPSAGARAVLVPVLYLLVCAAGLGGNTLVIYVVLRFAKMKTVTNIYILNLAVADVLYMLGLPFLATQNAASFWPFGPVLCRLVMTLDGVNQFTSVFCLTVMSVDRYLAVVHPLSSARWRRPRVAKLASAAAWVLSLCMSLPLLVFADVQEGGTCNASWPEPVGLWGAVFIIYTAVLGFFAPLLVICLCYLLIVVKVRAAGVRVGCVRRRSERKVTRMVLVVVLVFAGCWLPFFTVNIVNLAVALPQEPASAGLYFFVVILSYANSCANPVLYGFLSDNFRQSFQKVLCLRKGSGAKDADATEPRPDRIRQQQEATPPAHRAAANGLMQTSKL

Consider `COCC1OC(OCc2ccc3ccccc3c2)C(NC(=O)CCN)C(OCc2ccccc2)C1O` (mixture of isomers) [Compound 64], for which the “% SST5 radio-ligand binding displaced at conc 0.001” value is on record as “− (% SST5 radio-ligand binding displaced at cone (μM) −<40%)”, the “% SST5 radio-ligand binding displaced at conc 0.10” value is “+ (% SST5 radio-ligand binding displaced at cone (μM) 60>+>40%)”, the “% SST5 radio-ligand binding displaced at conc 0.5” value was “++ (% SST5 radio-ligand binding displaced at conc (μM) >60%)” and the “% SST5 radio-ligand binding displaced at conc 1.0” value is reported as “++ (% SST5 radio-ligand binding displaced at conc (μM) >60%)”. For the same compound, the “% SST5 radio-ligand binding displaced at conc 10” value was “++ (% SST5 radio-ligand binding displaced at conc (μM) >60%)”.

Consider `COCC1OC(OCc2ccc3ccccc3c2)C(NC(=O)CCN)C(OCc2ccccc2)C1O` (mixture of isomers) [Compound 65], for which the “% SST5 radio-ligand binding displaced at conc 10” value is given as “++ (% SST5 radio-ligand binding displaced at conc (μM) >60%)”.

For `COCC1OC(OCc2ccc3ccccc3c2)C(NC(=O)CCN)C(OCc2ccc(Cl)cc2)C1O` (mixture of isomers) [Compound 66], the “% SST5 radio-ligand binding displaced at conc 0.001” value is on record as “− (% SST5 radio-ligand binding displaced at cone (μM) −<40%)”, the “% SST5 radio-ligand binding displaced at conc 0.10” value is listed as “− (% SST5 radio-ligand binding displaced at cone (μM) −<40%)”, the “% SST5 radio-ligand binding displaced at conc 0.5” value was “++ (% SST5 radio-ligand binding displaced at conc (μM) >60%)” and the “% SST5 radio-ligand binding displaced at conc 1.0” value is given as “++ (% SST5 radio-ligand binding displaced at conc (μM) >60%)”. Moreover, the “% SST5 radio-ligand binding displaced at conc 10” value is reported as “++ (% SST5 radio-ligand binding displaced at conc (μM) >60%)”.

For the compound `COCC1OC(OCc2ccc3ccccc3c2)C(NC(=O)CCN)C(OCc2ccc(Cl)cc2)C1O` (mixture of isomers) [Compound 67], the “% SST5 radio-ligand binding displaced at conc 10” value was “++ (% SST5 radio-ligand binding displaced at conc (μM) >60%)”.

Take `COCC1OC(OCc2ccc3ccccc3c2)C(NC(=O)CCN)C(OCc2ccc(-c3ccccc3)cc2)C1O` (mixture of isomers) [Compound 68]: the “% SST5 radio-ligand binding displaced at conc 0.001” value is “− (% SST5 radio-ligand binding displaced at cone (μM) −<40%)”, the “% SST5 radio-ligand binding displaced at conc 0.10” value was “− (% SST5 radio-ligand binding displaced at cone (μM) −<40%)”, the “% SST5 radio-ligand binding displaced at conc 0.25” value is reported as “− (% SST5 radio-ligand binding displaced at cone (μM) −<40%)” and the “% SST5 radio-ligand binding displaced at conc 0.5” value is given as “++ (% SST5 radio-ligand binding displaced at conc (μM) >60%)”. Besides, the “% SST5 radio-ligand binding displaced at conc 1.0” value was “++ (% SST5 radio-ligand binding displaced at conc (μM) >60%)” and the “% SST5 radio-ligand binding displaced at conc 10” value is “++ (% SST5 radio-ligand binding displaced at conc (μM) >60%)”.

On to `COCC1OC(OCc2ccc3ccccc3c2)C(NC(=O)CCN)C(OCc2ccc3ccccc3c2)C1O` (mixture of isomers) [Compound 69], for which the “% SST5 radio-ligand binding displaced at conc 0.001” value is on record as “+ (% SST5 radio-ligand binding displaced at cone (μM) 60>+>40%)”, the “% SST5 radio-ligand binding displaced at conc 0.10” value was “++ (% SST5 radio-ligand binding displaced at conc (μM) >60%)”, the “% SST5 radio-ligand binding displaced at conc 0.5” value is recorded as “++ (% SST5 radio-ligand binding displaced at conc (μM) >60%)” and the “% SST5 radio-ligand binding displaced at conc 1.0” value was “++ (% SST5 radio-ligand binding displaced at conc (μM) >60%)”. Also, the “% SST5 radio-ligand binding displaced at conc 10” value is recorded as “++ (% SST5 radio-ligand binding displaced at conc (μM) >60%)”.

`NCCC(=O)NC1C(OCc2ccc3ccccc3c2)OC(COCc2ccc3ccccc3c2)C(O)C1OCc1ccc(Cl)cc1` (mixture of isomers) [Compound 70]: the “% SST5 radio-ligand binding displaced at conc 0.25” value is recorded as “− (% SST5 radio-ligand binding displaced at cone (μM) −<40%)” and the “% SST5 radio-ligand binding displaced at conc 1.0” value was “+ (% SST5 radio-ligand binding displaced at cone (μM) 60>+>40%)”.

Turning to `NCCC(=O)NC1C(OCc2ccc3ccccc3c2)OC(COCc2ccccc2)C(O)C1OCc1ccc(Cl)cc1` (mixture of isomers) [Compound 71], the “% SST5 radio-ligand binding displaced at conc 0.25” value is on record as “− (% SST5 radio-ligand binding displaced at cone (μM) −<40%)” and the “% SST5 radio-ligand binding displaced at conc 1.0” value was “++ (% SST5 radio-ligand binding displaced at conc (μM) >60%)”.

As for `NCCC(=O)NC1C(OCc2ccc3ccccc3c2)OC(COCc2ccc(Cl)cc2)C(O)C1OCc1ccc(Cl)cc1` (mixture of isomers) [Compound 72], the “% SST5 radio-ligand binding displaced at conc 0.25” value was “− (% SST5 radio-ligand binding displaced at cone (μM) −<40%)” and the “% SST5 radio-ligand binding displaced at conc 1.0” value is “++ (% SST5 radio-ligand binding displaced at conc (μM) >60%)”.

For `NCCC(=O)NC1C(OCc2ccc3ccccc3c2)OC(COCc2ccc3ccccc3c2)C(O)C1OCc1ccc2ccccc2c1` (mixture of isomers) [Compound 73], the “% SST5 radio-ligand binding displaced at conc 0.25” value is reported as “− (% SST5 radio-ligand binding displaced at cone (μM) −<40%)” and the “% SST5 radio-ligand binding displaced at conc 1.0” value was “+ (% SST5 radio-ligand binding displaced at cone (μM) 60>+>40%)”.

For `NCCC(=O)NC1C(OCc2ccc3ccccc3c2)OC(COCc2ccccc2)C(O)C1OCc1ccc2ccccc2c1` (mixture of isomers) [Compound 74], the “% SST5 radio-ligand binding displaced at conc 0.25” value was “− (% SST5 radio-ligand binding displaced at cone (μM) −<40%)” and the “% SST5 radio-ligand binding displaced at conc 1.0” value is listed as “++ (% SST5 radio-ligand binding displaced at conc (μM) >60%)”.

On to `NCCC(=O)NC1C(OCc2ccc3ccccc3c2)OC(COCc2ccc(Cl)cc2)C(O)C1OCc1ccc2ccccc2c1` (mixture of isomers) [Compound 75], for which the “% SST5 radio-ligand binding displaced at conc 0.25” value is “− (% SST5 radio-ligand binding displaced at cone (μM) −<40%)” and the “% SST5 radio-ligand binding displaced at conc 1.0” value was “++ (% SST5 radio-ligand binding displaced at conc (μM) >60%)”.

`NCCC(=O)NC1C(OCc2ccc3ccccc3c2)OC(COCc2ccc3ccccc3c2)C(O)C1OCc1ccccc1` (mixture of isomers) [Compound 76]: the “% SST5 radio-ligand binding displaced at conc 0.25” value is “− (% SST5 radio-ligand binding displaced at cone (μM) −<40%)” and the “% SST5 radio-ligand binding displaced at conc 1.0” value is listed as “++ (% SST5 radio-ligand binding displaced at conc (μM) >60%)”.

In the case of `NCCC(=O)NC1C(OCc2ccc3ccccc3c2)OC(COCc2ccccc2)C(O)C1OCc1ccccc1` (mixture of isomers) [Compound 77], the “% SST5 radio-ligand binding displaced at conc 0.25” value is “− (% SST5 radio-ligand binding displaced at cone (μM) −<40%)” and the “% SST5 radio-ligand binding displaced at conc 1.0” value was “++ (% SST5 radio-ligand binding displaced at conc (μM) >60%)”.

For the compound `NCCC(=O)NC1C(OCc2ccc3ccccc3c2)OC(COCc2ccc(Cl)cc2)C(O)C1OCc1ccccc1` (mixture of isomers) [Compound 78], the “% SST5 radio-ligand binding displaced at conc 0.25” value is “+ (% SST5 radio-ligand binding displaced at cone (μM) 60>+>40%)” and the “% SST5 radio-ligand binding displaced at conc 1.0” value was “++ (% SST5 radio-ligand binding displaced at conc (μM) >60%)”.

On to `COC1C(O)C(COCc2ccccc2)OC(OCc2ccc3ccccc3c2)C1NC(=O)CCN` (mixture of isomers) [Compound 93], for which the “% SST5 radio-ligand binding displaced at conc 0.25” value is given as “− (% SST5 radio-ligand binding displaced at cone (μM) −<40%)” and the “% SST5 radio-ligand binding displaced at conc 1.0” value is recorded as “+ (% SST5 radio-ligand binding displaced at cone (μM) 60>+>40%)”.

On to `COC1C(O)C(COCc2ccc3ccccc3c2)OC(OCc2ccc3ccccc3c2)C1NC(=O)CCN` (mixture of isomers) [Compound 97], for which the “% SST5 radio-ligand binding displaced at conc 0.25” value was “− (% SST5 radio-ligand binding displaced at cone (μM) −<40%)” and the “% SST5 radio-ligand binding displaced at conc 1.0” value is “+ (% SST5 radio-ligand binding displaced at cone (μM) 60>+>40%)”.

Consider `COCC1OC(OCc2ccc3ccccc3c2)C(NC(=O)CCCN)C(OCc2ccccc2)C1O` (mixture of isomers) [Compound 120], for which the “% SST5 radio-ligand binding displaced at conc 0.5” value is recorded as “+ (% SST5 radio-ligand binding displaced at cone (μM) 60>+>40%)” and the “% SST5 radio-ligand binding displaced at conc 10” value is “++ (% SST5 radio-ligand binding displaced at conc (μM) >60%)”.

With `COC1C(O)C(COCc2ccc(-c3ccccc3)cc2)OC(OCc2ccc3ccccc3c2)C1NC(=O)CCCN` (mixture of isomers) [Compound 121], the “% SST5 radio-ligand binding displaced at conc 0.5” value was “+ (% SST5 radio-ligand binding displaced at cone (μM) 60>+>40%)” and the “% SST5 radio-ligand binding displaced at conc 10” value was “+ (% SST5 radio-ligand binding displaced at cone (μM) 60>+>40%)”.

For `COC1C(O)C(COCc2ccc3ccccc3c2)OC(OCc2ccc3ccccc3c2)C1NC(=O)CCCN` (mixture of isomers) [Compound 122], the “% SST5 radio-ligand binding displaced at conc 0.5” value is reported as “++ (% SST5 radio-ligand binding displaced at conc (μM) >60%)” and the “% SST5 radio-ligand binding displaced at conc 10” value is listed as “++ (% SST5 radio-ligand binding displaced at conc (μM) >60%)”.

As for `COC1C(O)C(COCc2ccccc2)OC(OCc2ccc3ccccc3c2)C1NC(=O)CCCN` (mixture of isomers) [Compound 123], the “% SST5 radio-ligand binding displaced at conc 0.5” value is “− (% SST5 radio-ligand binding displaced at cone (μM) −<40%)” and the “% SST5 radio-ligand binding displaced at conc 10” value is listed as “− (% SST5 radio-ligand binding displaced at cone (μM) −<40%)”.

As for `COC1C(O)C(COCc2ccc(Cl)cc2)OC(OCc2ccc3ccccc3c2)C1NC(=O)CCCN` (mixture of isomers) [Compound 124], the “% SST5 radio-ligand binding displaced at conc 0.5” value is “− (% SST5 radio-ligand binding displaced at cone (μM) −<40%)” and the “% SST5 radio-ligand binding displaced at conc 10” value is “+ (% SST5 radio-ligand binding displaced at cone (μM) 60>+>40%)”.

Turning to `COC1C(O)C(COCc2cccc(O)c2)OC(OCc2ccc3ccccc3c2)C1NC(=O)CCCN` (mixture of isomers) [Compound 125], the “% SST5 radio-ligand binding displaced at conc 0.5” value is given as “− (% SST5 radio-ligand binding displaced at cone (μM) −<40%)” and the “% SST5 radio-ligand binding displaced at conc 10” value is “+ (% SST5 radio-ligand binding displaced at cone (μM) 60>+>40%)”.

Take `COCC1OC(OCc2ccc3ccccc3c2)C(NC(=O)CCCN)C(OCc2ccccc2)C1O` (mixture of isomers) [Compound 126]: the “% SST5 radio-ligand binding displaced at conc 0.001” value was “− (% SST5 radio-ligand binding displaced at cone (μM) −<40%)”, the “% SST5 radio-ligand binding displaced at conc 0.10” value was “− (% SST5 radio-ligand binding displaced at cone (μM) −<40%)”, the “% SST5 radio-ligand binding displaced at conc 0.5” value is “+ (% SST5 radio-ligand binding displaced at cone (μM) 60>+>40%)” and the “% SST5 radio-ligand binding displaced at conc 1.0” value is listed as “+ (% SST5 radio-ligand binding displaced at cone (μM) 60>+>40%)”. The “% SST5 radio-ligand binding displaced at conc 10” value is “++ (% SST5 radio-ligand binding displaced at conc (μM) >60%)”.
